These results are taken from ChEMBL document CHEMBL4665541, “Search for new therapeutic options for the uncommon pathogen Mycobacterium chimaera: an open drug discovery approach” (Lancet Microbe, 2021).

Common to all, as to type: functional, organism-based
What all share (parameters): conc 20 uM

Assay [1] relates to Mycobacterium tuberculosis. Put plainly: (§1) Inhibition of mycobacterial growth using the resazurin microtitre cell viability assay (REMA), compounds at final concentration of 20 µM (2% v/v DMSO). Hits were classed as compounds that inhibited bacterial growth by 70% or more compared to drug-free controls. The conditions noted are these: H37Rv. On the technique in general: The colour change of resazurin is a common sign of viable cells or microbes.

Assay [2] concerns Mycobacterium intracellulare subsp. chimaera. The description is as §1. The conditions noted are these: NCTC13781.
In assay [3] the test system is Mycobacteroides abscessus. The description is as §1. The conditions noted are these: ATCC19977.

For the substance MMV676431, the Survival in assay [1] was 81.5%; in assay [2], 98.6%; in assay [3], 115%.
Taken in the same sequence, the figures for MMV069458 were 11.9%, 94.1% and 102%.
Consider MMV026356, for which the Survival in assay [1] is 101%; in assay [2] it was 89.7%; in assay [3], 107%.
The matching figures for MMV161996: 119%, 108% and 103%.
Turning to MMV024101, the results for the Survival in assay [1], in assay [2] and in assay [3] were 99.6%, 100% and 95.8%, respectively.
Taken in the same sequence, the figures for MMV663250 were 95.4%, 116% and 104%.
Taken in the same sequence, the figures for MMV084603 were 98.8%, 81.6% and 112%.
With MMV053220, the values for the Survival in assay [1], in assay [2] and in assay [3] were 90.6%, 97.9% and 115%, respectively.
The matching figures for MMV024311: 74.4%, 106% and 96.6%.
For MMV004168, the figures for the Survival in assay [1], in assay [2] and in assay [3] were 90.2%, 99.7% and 114%, respectively.
The matching figures for MMV688364: 82.7%, 89.9% and 111%.
The matching figures for MMV688471: 87.8%, 98.6% and 109%.
The matching figures for MMV026550: 88.2%, 98.7% and 111%.
As to MMV007625, the Survival in assay [1] was 90.4%; in assay [2], 104%; in assay [3], 123%.
The matching figures for MMV676409: 19.2%, 85.7% and 122%.
The matching figures for MMV687246: 90.9%, 110% and 119%.
The matching figures for MMV021013: 100%, 88% and 108%.
As for MMV676444, the Survival in assay [1] was 56.3%; in assay [2], 97.5%; in assay [3], 113%.
Taken in the same sequence, the figures for MMV688991 were 82.1%, 90.1% and 98.3%.
The matching figures for MMV688350: 105%, 92.5% and 102%.
Taken in the same sequence, the figures for MMV676555 were 71.2%, 39% and 123%.
As for MMV687273, the figures for the Survival in assay [1], in assay [2] and in assay [3] were 31.5%, 110% and 111%, respectively.
Taken in the same sequence, the figures for MMV688547 were 95.2%, 102% and 116%.
Taken in the same sequence, the figures for MMV023183 were 88.3%, 104% and 119%.
In the case of MMV687243, the Survival was 87.1% in assay [1], 106% in assay [2] and 113% in assay [3].
Taken in the same sequence, the figures for MMV688362 were 103%, 90.2% and 109%.
Taken in the same sequence, the figures for MMV688797 were 80.5%, 96.5% and 113%.
Taken in the same sequence, the figures for MMV687749 were 73.3%, 96.9% and 113%.
For the substance MMV001625, the Survival was 90.5% in assay [1], 101% in assay [2] and 121% in assay [3].
Taken in the same sequence, the figures for MMV675968 were 15%, 1.74% and 87.6%.
The matching figures for MMV009054: 98.7%, 100% and 105%.
Taken in the same sequence, the figures for MMV676401 were 95.8%, 88% and 113%.
As for MMV671636, the Survival in assay [1] is 95.9%; in assay [2] it was 85.9%; in assay [3] it was 112%.
The matching figures for MMV006372: 101%, 98.4% and 111%.
In the case of MMV200748, the Survival in assay [1] was 103%; in assay [2], 100%; in assay [3] it was 108%.
Taken in the same sequence, the figures for MMV688844 were 15.4%, 4.25% and 11.7%.
The matching figures for MMV676191: 100%, 105% and 99.5%.
For MMV045105, the Survival was 107% in assay [1], 102% in assay [2] and 113% in assay [3].
Taken in the same sequence, the figures for MMV019551 were 77.8%, 90.1% and 103%.
The matching figures for MMV676411: 16.4%, 98.2% and 101%.
With MMV1037162, the Survival was 107% in assay [1], 107% in assay [2] and 97.5% in assay [3].
In the case of MMV688466, the results for the Survival in assay [1], in assay [2] and in assay [3] were 93.2%, 106% and 115%, respectively.
Taken in the same sequence, the figures for MMV1030799 were 18.8%, 99.7% and 121%.
Taken in the same sequence, the figures for MMV688941 were 69.8%, 104% and 120%.
Turning to MMV023969, the Survival was 19.5% in assay [1], 92.8% in assay [2] and 96% in assay [3].
The matching figures for MMV687696: 44.7%, 75.7% and 109%.
Taken in the same sequence, the figures for MMV032995 were 89.1%, 98.4% and 111%.
Taken in the same sequence, the figures for MMV652003 were 112%, 97.2% and 109%.
In the case of MMV676159, the Survival is 99.4% in assay [1], 100% in assay [2] and 106% in assay [3].
The matching figures for MMV676472: 120%, 92.2% and 115%.
Take MMV688768: the Survival in assay [1] is 87%; in assay [2], 93.9%; in assay [3], 109%.
Taken in the same sequence, the figures for MMV146306 were 96.1%, 96.2% and 107%.
The matching figures for MMV676554: 29.4%, 41.2% and 109%.
Taken in the same sequence, the figures for MMV688548 were 91.6%, 101% and 115%.
With MMV024406, the Survival in assay [1] was 89%; in assay [2], 100%; in assay [3], 114%.
The matching figures for MMV689758: 5.64%, 1.81% and 19.8%.
